In US20110034335A1, “Treatment of Ornamental Plants” (priority 2009, published 2011):

How the values were obtained:
Type in all cases: in vivo
Cyclamen plants = experiment: Spray with 1-MCP solutions, ethylene challenge (Example 1); settings: Day 7; for Appearance: 1 = poor, 5 = excellent
Protocol: (§1) Spray applications were made using (unless otherwise noted) AFxRD-038 powder containing 3.8% active ingredient, i.e. 1-MCP, and also containing dextrose, alpha-cyclodextrin, and amino acid salt. Rates listed are for active ingredient e.g. 5 mg active ingredient per liter. Sprayed liquid contained (unless otherwise noted) AFxRD-038 powder added to water. AFxRD-038 powder was obtained from AgroFresh Inc. The water used (unless otherwise noted) was tap water. Applications were done in 500 ml spray bottles at rates typical for growth regulators applications in the ornamental industry i.e., 200 ml per square meter. Spraying was done within 5-15 minutes of mixing the formulation. Plants were allowed to dry for 1-4 hours before being challenged with ethylene (2 ppm for about 16 hours at ambient temperatures).
(§2) Visual appearance and flower or bud abscission of Impatiens (unknown cultivar in pots with diameter of 10 cm (4 inch)) and Cyclamen plants (unknown cultivar in pots of diameter 11.5 cm (4.5 inch)) sprayed with 1-MCP solutions and challenged with ethylene.

Impatiens = experiment: as above; settings: 0 = poor, 5 = excellent
Protocol: as §1, §2

nursery plants = experiment: Nursery plants, reassessment after 4 weeks in greenhouse (Example 10); settings: 50 mg/L of 1-MCP; after 4 weeks in a greenhouse
Protocol: A range of nursery plants that often show quality problems during shipping were chosen including Datura (tropical), Mini-rose, Delphinium (sun perennial), Verbena (sun perennial), Asclepias (sun perennial), Delosperma (groundcover), Myosotis (shade perennial) and Primula (shade perennial).
Spray liquid had 50 mg/L of 1-MCP. Sprayed and unsprayed control plants, all of which were blooming, were packed in boxes according to standard procedures and shipped under commercial conditions. After 5 days plants were unpacked and given a quality rating, from 0 (poor) to 2 (good). Results were as follows:
After the above observations, the plants were placed in a greenhouse for 4 weeks and assessed again.

Petunia “Royal Velvet” = experiment: Racks of flowering plants sprayed, truck 14 hours, ethylene challenge (Example 8); settings: 25 mg/L, 200 ml/square meter, scale 0 (poor) to 2 (good)
Protocol: as §1
(§3) Racks of flowers were sprayed with spray liquid containing 25 mg/L at rate of 200 ml/square meter. Racks were then placed into a full enclosed truck (length 7.3 meter) for 14 hours. Plants were then challenged with ethylene and evaluated 3 and 7 days later, using a rating scale from 0 (poor) to 2 (good). […]

[1] = tested on: Callibrachoa “Cherry Blossom”; experiment: as above; settings: 25 mg/L, 200 ml/square meter, scale 0 (poor) to 2 (good)
Protocol: as §1, §3

Dianthus (mixed) = experiment: as above; settings: 25 mg/L, 200 ml/square meter, scale 0 (poor) to 2 (good)
Protocol: as §1, §3

Dianthus “Ideal White” = experiment: as above; settings: 25 mg/L, 200 ml/square meter, scale 0 (poor) to 2 (good)
Protocol: as §1, §3

Impatiens (light pink) = experiment: as above; settings: 25 mg/L, 200 ml/square meter, scale 0 (poor) to 2 (good)
Protocol: as §1, §3

Snapdragon (yellow) = experiment: as above; settings: 25 mg/L, 200 ml/square meter, scale 0 (poor) to 2 (good)
Protocol: as §1, §3

Impatiens (dark pink) = experiment: as above; settings: 25 mg/L, 200 ml/square meter, scale 0 (poor) to 2 (good)
Protocol: as §1, §3

Verbena “babylon Red” = experiment: as above; settings: 25 mg/L, 200 ml/square meter, scale 0 (poor) to 2 (good)
Protocol: as §1, §3

Impatiens (double pink) = experiment: as above; settings: 25 mg/L, 200 ml/square meter, scale 0 (poor) to 2 (good)
Protocol: as §1, §3

[2] = tested on: racks of flowering plants; experiment: Racks of flowering plants, overall comparison sprayed vs control (Example 8); settings: 25 mg/L; every variety
Protocol: as §1
Racks of flowers were sprayed with spray liquid containing 25 mg/L at rate of 200 ml/square meter. Racks were then placed into a full enclosed truck (length 7.3 meter) for 14 hours. Plants were then challenged with ethylene and evaluated 3 and 7 days later, using a rating scale from 0 (poor) to 2 (good). […] Results were as follows:
In no case was the sprayed plant worse to a statistically significant degree than the corresponding control plant. In most cases the sprayed plant was better than the corresponding control plant.

Petunia = experiment: Spray with 1-MCP solutions with or without Silwet L-77, ethylene challenge (Example 6)
Protocol: as §1
(§4) Surfactant Silwet™ L-77 (called “surf” below) was sometimes included to evaluate the effect of surfactant on efficacy. Silwet™ L-77 was used in the form of a pure liquid. The amounts shown below as “ml/L” refer to milliliters of pure Silwet™ L-77 per liter of liquid CP composition.
Bud wilting (%) of Petunia (in six-pack trays) sprayed with 1-MCP solutions with or without Silwet™ L-77 surfactant and challenged with ethylene.

[3] = tested on: ‘Hark’ Phalaenopsis orchids; experiment: Spray with 1-MCP solutions with or without Silwet L-77, ethylene challenge (Example 7)
Protocol: as §1, §4
Percent of plants showing one or more of flower wilting, bud wilting, and drop on ‘Hark’ Phalaenopsis orchids (in pots) sprayed with 1-MCP solutions with or without Silwet™ L-77 surfactant and challenged with ethylene.

[4] = 1-MCP 5 mg/L, surf 0 ml/L, Day 5
[5] = 1-MCP 10 mg/L, surf 0 ml/L, Day 5

CC1=CC1 [1-MCP, 1-methylcyclopropene]
Abscission (%) (Cyclamen plants; 1-MCP 10 mg/L): 25.6%
Appearance (Cyclamen plants; 1-MCP 10 mg/L): 3.7
Abscission (%) (Cyclamen plants; 1-MCP 15 mg/L): 23.3%
Appearance (Cyclamen plants; 1-MCP 15 mg/L): 3.7
Abscission (%) (Cyclamen plants; 1-MCP 25 mg/L): 25.0%
Appearance (Cyclamen plants; 1-MCP 25 mg/L): 3.7
Appearance (Impatiens; 1-MCP 10 mg/L, Day 1): 3.7
Appearance (Impatiens; 1-MCP 10 mg/L, Day 4): 3.3
Appearance (Impatiens; 1-MCP 100 mg/L, Day 1): 4.3
Appearance (Impatiens; 1-MCP 100 mg/L, Day 4): 3.7
Appearance (Impatiens; 1-MCP 300 mg/L, Day 1): 2.3
Appearance (Impatiens; 1-MCP 300 mg/L, Day 4): 1.3
assessment of sprayed plants vs control (nursery plants): typically larger, greener, and healthier
rating, Sprayed (Petunia “Royal Velvet”; Day 3): 1.00 a
rating, Sprayed (Petunia “Royal Velvet”; Day 7): 0.38 a
rating, Sprayed ([1]; Day 3): 1.00 a
rating, Sprayed ([1]; Day 7): 1.00 a
rating, Sprayed (Dianthus (mixed); Day 3): 0.58 a
rating, Sprayed (Dianthus (mixed); Day 7): 0.25 a
rating, Sprayed (Dianthus “Ideal White”; Day 3): 0.92 a
rating, Sprayed (Dianthus “Ideal White”; Day 7): 1.00 a
rating, Sprayed (Impatiens (light pink); Day 3): 1.00 a
rating, Sprayed (Impatiens (light pink); Day 7): 1.00 a
rating, Sprayed (Snapdragon (yellow); Day 3): 0.83 a
rating, Sprayed (Snapdragon (yellow); Day 7): 0.58 a
rating, Sprayed (Impatiens (dark pink); Day 3): 1.00 a
rating, Sprayed (Impatiens (dark pink); Day 7): 0.83 a
rating, Sprayed (Verbena “babylon Red”; Day 3): 0.58 a
rating, Sprayed (Verbena “babylon Red”; Day 7): 0.19 a
rating, Sprayed (Impatiens (double pink); Day 3): 1.00 a
rating, Sprayed (Impatiens (double pink); Day 7): 0.58 a
sprayed plant compared with control plant [2]: better than the control plant at day 3 or at day 7 or at both
Bud Wilting (%) (Petunia; 1-MCP 1 mg/L, surf 0 ml/L, Day 5): 89%
Bud Wilting (%) (Petunia; 1-MCP 1 mg/L, surf 0 ml/L, Day 9): 93%
Bud Wilting (%) (Petunia; 1-MCP 1 mg/L, surf 0.25 ml/L, Day 5): 76%
Bud Wilting (%) (Petunia; 1-MCP 1 mg/L, surf 0.25 ml/L, Day 9): 93%
Bud Wilting (%) (Petunia; 1-MCP 2.5 mg/L, surf 0 ml/L, Day 5): 74%
Bud Wilting (%) (Petunia; 1-MCP 2.5 mg/L, surf 0 ml/L, Day 9): 91%
Bud Wilting (%) (Petunia; 1-MCP 2.5 mg/L, surf 0.25 ml/L, Day 5): 68%
Bud Wilting (%) (Petunia; 1-MCP 2.5 mg/L, surf 0.25 ml/L, Day 9): 85%
Bud Wilting (%) (Petunia; [4]): 63%
Bud Wilting (%) (Petunia; 1-MCP 5 mg/L, surf 0 ml/L, Day 9): 71%
Bud Wilting (%) (Petunia; 1-MCP 5 mg/L, surf 0.25 ml/L, Day 5): 57%
Bud Wilting (%) (Petunia; 1-MCP 5 mg/L, surf 0.25 ml/L, Day 9): 67%
Bud Wilting (%) (Petunia; [5]): 34%
Bud Wilting (%) (Petunia; 1-MCP 10 mg/L, surf 0 ml/L, Day 9): 52%
Bud Wilting (%) (Petunia; 1-MCP 10 mg/L, surf 0.25 ml/L, Day 5): 37%
Bud Wilting (%) (Petunia; 1-MCP 10 mg/L, surf 0.25 ml/L, Day 9): 50%
flower wilt, bud wilt, and/or drop (%) ([3]; 1-MCP 5 mg/L, surf 0 ml/L, Day 0): 0 a %
flower wilt, bud wilt, and/or drop (%) [3, 4]: 1.8%
flower wilt, bud wilt, and/or drop (%) ([3]; 1-MCP 5 mg/L, surf 0 ml/L, Day 10): 1.8%
flower wilt, bud wilt, and/or drop (%) ([3]; 1-MCP 5 mg/L, surf 0 ml/L, Day 15): 1.8%
flower wilt, bud wilt, and/or drop (%) ([3]; 1-MCP 10 mg/L, surf 0 ml/L, Day 0): 0 a %
flower wilt, bud wilt, and/or drop (%) [3, 5]: 2.9%
flower wilt, bud wilt, and/or drop (%) ([3]; 1-MCP 10 mg/L, surf 0 ml/L, Day 10): 2.9%
flower wilt, bud wilt, and/or drop (%) ([3]; 1-MCP 10 mg/L, surf 0 ml/L, Day 15): 2.9%
flower wilt, bud wilt, and/or drop (%) ([3]; 1-MCP 25 mg/L, surf 0 ml/L, Day 0): 0 a %
flower wilt, bud wilt, and/or drop (%) ([3]; 1-MCP 25 mg/L, surf 0 ml/L, Day 5): 0%
flower wilt, bud wilt, and/or drop (%) ([3]; 1-MCP 25 mg/L, surf 0 ml/L, Day 10): 0%
flower wilt, bud wilt, and/or drop (%) ([3]; 1-MCP 25 mg/L, surf 0 ml/L, Day 15): 0%
flower wilt, bud wilt, and/or drop (%) ([3]; 1-MCP 50 mg/L, surf 0 ml/L, Day 0): 0 a %
flower wilt, bud wilt, and/or drop (%) ([3]; 1-MCP 50 mg/L, surf 0 ml/L, Day 5): 1.8%
flower wilt, bud wilt, and/or drop (%) ([3]; 1-MCP 50 mg/L, surf 0 ml/L, Day 10): 1.8%
flower wilt, bud wilt, and/or drop (%) ([3]; 1-MCP 50 mg/L, surf 0 ml/L, Day 15): 1.8%
flower wilt, bud wilt, and/or drop (%) ([3]; 1-MCP 50 mg/L, surf 0.25 ml/L, Day 0): 0 a %
flower wilt, bud wilt, and/or drop (%) ([3]; 1-MCP 50 mg/L, surf 0.25 ml/L, Day 5): 0%
flower wilt, bud wilt, and/or drop (%) ([3]; 1-MCP 50 mg/L, surf 0.25 ml/L, Day 10): 0%
flower wilt, bud wilt, and/or drop (%) ([3]; 1-MCP 50 mg/L, surf 0.25 ml/L, Day 15): 0%
